Key:
STARD3 = target: T1, STARD3 (Homo sapiens, UniProt Q14849); assay: Differential scanning fluorimetry (DSF), STARD3; assay type: binding; details: for ΔTm at 10 µM / STARD3 (DSF) ΔTm: single dose, Dose = 10 µM; for Kd: apparent Kd, mean of three experiments run in technical duplicates, read-out: STARD3 Kd,app (DSF); for STARD3 (DSF) ΔTmmax: maximal thermal shift
T1 construct: STARD3(216-444); made in house; host or cells: E. coli BL21(DE3)
T1 sequence (Q14849 216-444): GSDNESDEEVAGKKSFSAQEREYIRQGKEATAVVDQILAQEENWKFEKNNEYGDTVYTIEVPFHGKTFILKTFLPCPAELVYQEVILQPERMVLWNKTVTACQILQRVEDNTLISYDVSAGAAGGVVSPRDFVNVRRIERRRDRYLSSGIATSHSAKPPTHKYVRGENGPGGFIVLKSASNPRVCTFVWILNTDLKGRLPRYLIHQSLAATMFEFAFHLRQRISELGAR
Description: (§1) Protein expression constructs
(§2) Human ASTER domains of Aster-A(359-547), -B(364-552) and -C(318-504) were subcloned into a pGEX-6p-2rbs vector, thus introducing the cloning artifact ‘GPLGS’.3 The pGEX-6P-1-GST-OSBP(377- […]
(§3) a gift from James H. Hurley (University of California).4 The pHIS_2His6_Thrombin_STARD4(2-205;C75S) plasmid was a gift from Young Jun Im (Chonnam National University).5 STARD5A was a gift from Nicola Burgess-Brown (Addgene plasmid #42392; http://n2t.net/addgene:42392; […]
(§4) Protein expression and purification […]
(§5) vectors including an N-terminal PreScission-cleavable glutathione S-transferase (GST)-tag were expressed in Escherichia coli (E. coli) OverExpress C41 in Terrific Broth (TB) medium for 16 h at 18 °C after the induction with 0.1 mM isopropyl β-D-1-thiogalactopyranoside (IPTG). Cells were harvested at 3500 × g for 15 minutes and lysed by sonication in buffer containing 50 mM HEPES pH 7.5, 300 mM NaCl, 10 %v/v glycerol, 5 mM dithiothreitol (DTT), 0.1 %v/v Triton X-100 and protease inhibitor mix HP plus (Serva). The lysate was purified by affinity chromatography on a GSTrap FF column (Cytiva) using an ÄKTA Start (Cytiva) in buffer containing 50 mM HEPES pH 7.5, 300 mM NaCl, 10 %v/v glycerol, 5 mM DTT and 0.01 %v/v Triton X-100. The GST-tag was cleaved overnight on the column at 4 °C. The Aster sterol binding domains were further purified by size-exclusion chromatography (SEC) on a HiLoad 16/600 Superdex 75 pg (Cytiva) in buffer containing 20 mM HEPES pH 7.5, 300 mM NaCl, 10 %v/v […]
(§6) STARD5(6-213) harboring an N-terminal His6-Tag were expressed in E. coli BL21(DE3) in Luria-Bertani Broth (LB) medium for approximately 16 h at 18 °C after induction with 0.15 mM IPTG. Cells were harvested at 3500 × g for 15 minutes and lysed by sonication in buffer containing 50 mM HEPES pH 7.5, 150 mM NaCl, 5 %v/v glycerol, 5 mM DTT, 0.1 %v/v Triton X -100 and ethylenediaminetetraacetic acid (EDTA)-free protease inhibitor cocktail (Sigma-Aldrich). The cleared lysate was purified by affinity chromatography on a Ni-NTA Superflow Cartridge (Qiagen) using an ÄKTA Start (Cytiva) in buffer containing 50 mM HEPES pH 7.5, 150 mM NaCl, 5 %v/v glycerol, 5 mM DTT. START domains were eluted by using elution buffer containing 50 mM HEPES pH 7.5, 150 mM NaCl, 5 %v/v glycerol, 5 mM DTT and 500 mM imidazole. Proteins were further purified by SEC on a HiLoad 16/600 Superdex 75 pg (Cytiva) in buffer containing 20 mM HEPES pH 7.5, 150 mM NaCl, 5 %v/v glycerol and 2 mM DTT.
(§7) The ORP domain of human OSBP(377-807) in the pGEX-6p-1 vector with an N-terminal PreScission-cleavable GST-tag was expressed in E. coli OverExpress C41 in LB medium for 16 h at 18 °C after induction with 0.1 mM IPTG. Cells were harvested at 3500 × g for 15 minutes and lysed by sonication in buffer containing 20 mM HEPES pH 7.5, 300 mM NaCl, 10 %v/v glycerol, 5 mM DTT, 0.1 %v/v Triton X-100 and EDTA-free protease inhibitor cocktail (Sigma-Aldrich). The cleared lysate was purified by affinity chromatography on a GSTrap HF column (Cytiva) using an ÄKTA Start (Cytiva) in buffer containing 20 mM HEPES pH 7.5, 300 mM NaCl, 10 %v/v glycerol, 5 mM DTT. OSBP(377 -807) was eluted by using elution buffer containing 20 mM HEPES pH 7.5, 300 mM NaCl, 10 %v/v glycerol, 5 mM DTT and 10 mM reduced glutathione. Proteins were further purified by SEC on a HiLoad 16/600 Superdex 75 pg (Cytiva) using an ÄKTA Explorer (Cytiva) in buffer containing 20 mM HEPES pH 7.5, 150 mM NaCl, 10 %v/v glycerol and 2 mM DTT.
(§8) The ORP domains of human ORP1(534-950) in pET24b(+) and ORP2(49-480) in the pET24b(+) vector including an N-terminal His6-Tag were expressed in E. coli BL21(DE3) in TB medium for approximately 16 h at 18 °C after induction with 0.1 mM IPTG. Cells were collected at 3500 × g for 15 minutes and lysed by sonification in buffer containing 10 mM Tris-HCl pH 8, 300 mM NaCl, 5 % glycerol, 2 mM DTT, 0.1 % Triton X-100 and EDTA-free protease inhibitor cocktail (Sigma-Aldrich). The cleared […]

ORP1 = target: T2, ORP1 (Homo sapiens, UniProt Q9BXW6); assay: Fluorescence polarisation (FP) competition with NBD-cholesterol, ORP1; assay type: binding; details: for IC50: mean of three experiments run in technical duplicates; for inhibition at 10 µM / ORP1 (FP) inhibition: single dose, Dose = 10 µM
T2 construct: ORP1(534-950); host or cells: E. coli BL21(DE3)
T2 sequence (Q9BXW6 534-950): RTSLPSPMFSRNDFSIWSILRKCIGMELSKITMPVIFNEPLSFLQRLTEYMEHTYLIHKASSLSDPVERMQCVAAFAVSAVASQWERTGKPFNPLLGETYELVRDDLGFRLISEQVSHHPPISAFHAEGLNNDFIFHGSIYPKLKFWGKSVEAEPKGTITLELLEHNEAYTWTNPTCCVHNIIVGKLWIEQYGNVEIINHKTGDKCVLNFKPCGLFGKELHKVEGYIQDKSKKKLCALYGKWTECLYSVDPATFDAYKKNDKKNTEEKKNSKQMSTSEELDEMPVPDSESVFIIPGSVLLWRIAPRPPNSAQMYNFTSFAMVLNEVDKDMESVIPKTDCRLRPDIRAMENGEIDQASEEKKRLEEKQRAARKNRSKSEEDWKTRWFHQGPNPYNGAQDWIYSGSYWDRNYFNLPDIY
Description: as §1, §2, §3, §4, §5, §6, §7, §8

| Structure (SMILES) | ΔTm at 10 µM (STARD3) [°C] | IC50 (ORP1) [µM] | inhibition at 10 µM (ORP1) [%] | Kd (STARD3) [µM] | STARD3 (DSF) ΔTmmax (STARD3) [°C] | ORP1 (FP) inhibition (ORP1) [%] | STARD3 (DSF) ΔTm (STARD3) [°C] |
| --- | --- | --- | --- | --- | --- | --- | --- |
| C[C@]12CC[C@@H]3C[C@H]1CC[C@@]21C(=Nc2ccc(Br)cc21)O3 (racemic) [Compound 15b] | 0.3 | 20.9 | 60 |  |  |  |  |
| CC12CCC3CC1CCC21C(=Nc2ccc(N4CCOCC4)cc21)O3 (racemic) [Compound 19a] | 1.2 | > 80 | 0 |  |  |  |  |
| CC12CCC3CC1CCC21C(=Nc2ccc(Br)cc21)O3 (single isomer, unassigned; (+)) [(+)-15b] | 0.244 | > 80 | 0 | > 100 | 0.44 |  |  |
| CC12CCC3CC1CCC21C(=Nc2ccc(N4CCOCC4)cc21)O3 (single isomer, unassigned; (+)) [(+)-19a] | 1.5 | > 80 |  | > 100 | 3.6 | -3.3 |  |
| CC12CCC3CC1CCC21C(=Nc2ccc(N4CCOCC4)cc21)O3 (single isomer, unassigned; (-)) [(−)-19a] |  | > 50 |  | > 100 | 0.9 | 15.0 | 1.0 |
| C[C@@]12CC[C@H]3C[C@@H]1CC[C@]21C(=Nc2ccc(Br)cc21)O3 [(−)-15b] | 0.5 | 15.3 | 68.3 | > 100 | 0.7 |  |  |
| CC(C)Oc1ccc(C(=O)Nc2nc3c(s2)CN(C(=O)OC(C)(C)C)CC3)cc1 [Autogramin-2, reference compound] |  | 4.26 |  | > 30 |  | 57.5 | 0.027 |
| Cc1c2c(nc3ccccc13)[C@@]1(C)CC[C@@H](O)C[C@H]1CC2 [Compound 2a] | -0.0816 |  | 53.3 |  |  |  |  |
| C[C@]12CC[C@@H](O)C[C@H]1CCc1c2nc2ccccc2c1-c1ccccc1 [Compound 2b] |  |  |  |  |  | 11.7 | 0.0566 |
| Cc1c2c(nc3cc(Br)ccc13)[C@@]1(C)CC[C@@H](O)C[C@H]1CC2 [Compound 2c] |  |  |  |  |  | 81.7 | -0.168 |
| C[C@]12CC[C@@H](O)C[C@H]1CCc1c2nc2ccccc2c1-c1ccc(F)cc1 [Compound 2d] | 0.0456 |  | 5 |  |  |  |  |
| C[C@]12CC[C@@H](O)C[C@H]1CCc1c2nc2ccc(Cl)cc2c1-c1ccccc1 [Compound 2e] |  |  |  |  |  | 2.5 | -0.1 |
| C[C@]12CC[C@@H](O)C[C@H]1CCc1c2[nH]c2ncccc12 [Compound 3] | -0.0743 |  | -5.8 |  |  |  |  |
| C[C@]12CC[C@@H](O)C[C@H]1CCC[C@]21Nc2ccccc2-n2cccc21 [Compound 4] | 0.5 |  | 5.8 |  |  | 30.0 | 0.9 |
| C[C@]12CC[C@@H](O)C[C@H]1CCC[C@]21NC(=O)c2ccccc2N1 [Compound 5a] | -0.16 |  | -2.5 |  |  | 0.0 | 0.0244 |
| C[C@]12CC[C@@H](O)C[C@H]1CCC[C@]21NC(=O)c2ccc(F)cc2N1 [Compound 5b] | -0.121 |  |  |  |  | -7.5 | 0.0138 |
| COc1ccc2c(c1)C(=O)N[C@]1(CCC[C@@H]3C[C@H](O)CC[C@@]31C)N2 [Compound 5c] | 0.114 |  | 3.3 |  |  | -5.0 | 0.0624 |
| C[C@]12CC[C@@H](O)C[C@H]1CCc1nc3ccccc3nc12 [Compound 7a] | -0.1 |  | 16.7 |  |  |  |  |
| Cc1cc2nc3c(nc2cc1C)[C@@]1(C)CC[C@@H](O)C[C@H]1CC3 [Compound 7b] | 0.0153 |  | 0 |  |  |  |  |
| C[C@]12CC[C@@H](O)C[C@H]1CCc1nc3cc(F)c(F)cc3nc12 [Compound 7c] |  |  |  |  |  | -5.0 | -0.124 |
| C[C@]12CC[C@@H](O)C[C@H]1CCc1nc3cc(Cl)c(Cl)cc3nc12 [Compound 7d] |  |  |  |  |  | 1.7 | -0.1 |
| C[C@]12CC[C@@H](O)C[C@H]1CCc1nc3cc(Br)c(Br)cc3nc12 [Compound 7e] |  |  |  |  |  | 5.0 | 0.138 |
| C[C@]12CC[C@@H](O)C[C@H]1CCc1sc(N)nc12 [Compound 8a] | 0.0829 |  | -9.2 |  |  |  |  |
| Cc1nc2c(s1)CC[C@@H]1C[C@H](O)CC[C@]21C [Compound 8b] |  |  |  |  |  | -2.5 | 0.0139 |
